According to BindingDB's records for doi:10.1016/s0960-894x(98)00716-1 (Novartis Biomedical Research Institute, 1999):

Target: Stromelysin-1 (MMP-3)
Test: In vitro inhibitory activity against matrix metalloprotease-3

## CCO[C@H]1CC[C@@](CS)(C(=O)N[C@@H](Cc2ccccc2)C(=O)NC)CC1 [4-Ethoxy-1-mercaptomethyl-cyclohexanecarboxylic acid ((S)-1-methylcarbamoyl-2-phenyl-ethyl)-amide]
  IC50: 640 nM

## CCO[C@H]1CC[C@@](CS)(C(=O)N[C@@H](Cc2ccc(OC)cc2)C(=O)Nc2ccccc2)CC1 [4-Ethoxy-1-mercaptomethyl-cyclohexanecarboxylic acid [(S)-2-(4-methoxy-phenyl)-1-phenylcarbamoyl-ethyl]-amide]
  IC50: 62 nM

## CCO[C@H]1CC[C@@](CS)(C(=O)N[C@@H](Cc2ccccc2)C(=O)Nc2ccc(OC(F)(F)F)cc2)CC1 [4-Ethoxy-1-mercaptomethyl-cyclohexanecarboxylic acid [(S)-2-phenyl-1-(4-trifluoromethoxy-phenylcarbamoyl)-ethyl]-amide]
  IC50: 175 nM

## CCOc1ccc(C[C@H](NC(=O)[C@]2(CS)CC[C@H](OCC)CC2)C(=O)Nc2ccccc2)cc1 [4-Ethoxy-1-mercaptomethyl-cyclohexanecarboxylic acid [(S)-2-(4-ethoxy-phenyl)-1-phenylcarbamoyl-ethyl]-amide]
  IC50: 139 nM

## CNC(=O)[C@H](Cc1ccccc1)NC(=O)[C@]1(CS)CC[C@H](C(C)(C)C)CC1 [4-tert-Butyl-1-mercaptomethyl-cyclohexanecarboxylic acid ((S)-1-methylcarbamoyl-2-phenyl-ethyl)-amide]
  IC50: > 10000 nM

## CCO[C@H]1CC[C@@](CS)(C(=O)N[C@@H](Cc2ccccc2)C(=O)Nc2ccc(OC)cc2)CC1 [4-Ethoxy-1-mercaptomethyl-cyclohexanecarboxylic acid [(S)-1-(4-methoxy-phenylcarbamoyl)-2-phenyl-ethyl]-amide]
  IC50: 39 nM

## CCO[C@H]1CC[C@@](CS)(C(=O)N[C@@H](Cc2ccccc2)C(=O)NCc2ccccc2)CC1 [4-Ethoxy-1-mercaptomethyl-cyclohexanecarboxylic acid ((S)-1-benzylcarbamoyl-2-phenyl-ethyl)-amide]
  IC50: 207 nM

## CCO[C@H]1CC[C@@](CS)(C(=O)N[C@@H](Cc2ccccc2)C(=O)NC2CCCCC2)CC1 [4-Ethoxy-1-mercaptomethyl-cyclohexanecarboxylic acid ((S)-1-cyclohexylcarbamoyl-2-phenyl-ethyl)-amide]
  IC50: 617 nM

## CCC[C@H]1CC[C@@](CS)(C(=O)N[C@@H](Cc2ccccc2)C(=O)NC)CC1 [1-Mercaptomethyl-4-propyl-cyclohexanecarboxylic acid ((S)-1-methylcarbamoyl-2-phenyl-ethyl)-amide]
  IC50: > 10000 nM

## CCO[C@H]1CC[C@@](CS)(C(=O)N[C@@H](Cc2ccccc2)C(=O)Nc2ccccn2)CC1 [4-Ethoxy-1-mercaptomethyl-cyclohexanecarboxylic acid [(S)-2-phenyl-1-(pyridin-2-ylcarbamoyl)-ethyl]-amide]
  IC50: 449 nM

## CCO[C@H]1CC[C@@](CS)(C(=O)N[C@@H](Cc2ccccc2)C(=O)Nc2ccc(Cl)cc2)CC1 [4-Ethoxy-1-mercaptomethyl-cyclohexanecarboxylic acid [(S)-1-(4-chloro-phenylcarbamoyl)-2-phenyl-ethyl]-amide]
  IC50: 113 nM

## CNC(=O)[C@H](Cc1ccccc1)NC(=O)[C@@]1(CS)CCCC(OC)C1 (stereo partly drawn) [(R)-1-Mercaptomethyl-3-methoxy-cyclohexanecarboxylic acid ((S)-1-methylcarbamoyl-2-phenyl-ethyl)-amide]
  IC50: > 10000 nM

## CNC(=O)[C@H](Cc1ccccc1)NC(=O)C1(CS)CCCCC1 [1-Mercaptomethyl-cyclohexanecarboxylic acid ((S)-1-methylcarbamoyl-2-phenyl-ethyl)-amide]
  IC50: 9200 nM

## CCO[C@H]1CC[C@@](CS)(C(=O)N[C@@H](Cc2ccc(F)cc2)C(=O)Nc2ccccc2)CC1 [4-Ethoxy-1-mercaptomethyl-cyclohexanecarboxylic acid [(S)-2-(4-fluoro-phenyl)-1-phenylcarbamoyl-ethyl]-amide]
  IC50: 134 nM

## CCO[C@H]1CC[C@@](CS)(C(=O)N[C@@H](Cc2ccccc2)C(=O)NC2CCCC2)CC1 [4-Ethoxy-1-mercaptomethyl-cyclohexanecarboxylic acid ((S)-1-cyclopentylcarbamoyl-2-phenyl-ethyl)-amide]
  IC50: 666 nM
